Experimental data from patent US20050197350A1, “Novel quinoline, tetrahydroquinazoline, and pyrimidine derivatives and methods of treatment related to the use thereof” (TAISHO PHARMACEUTICAL CO., LTD., priority 2003, published 2005).

tested on: MCH receptors; experiment: MCH receptor activity class (method not given); conditions: class by percent of control at 10^-7 M or IC50

Compound	class
CN(C)c1nc(N[C@H]2CC[C@@H](NC(=O)NCc3ccc(Cl)cc3Cl)CC2)nc2c1CCCC2 [compound 1710]	2 (Class 2: The value of percent of control at 10^−7 M was from 40% to 60% or the value of IC′50 was from 50 nM to 200 nM.)
COc1ccc(NC(=O)N[C@H]2CC[C@@H](Nc3nc4c(c(N(C)C)n3)CCCC4)CC2)c(OC)c1 [compound 1711, N-(2,4-dimethoxyphenyl)-N′-(cis-4-{[4-(dimethylamino)-5,6,7,8-tetrahydroquinazolin-2-yl]amino}cyclohexyl)urea]	2 (Class 2: The value of percent of control at 10^−7 M was from 40% to 60% or the value of IC′50 was from 50 nM to 200 nM.)
CCOc1ccccc1NC(=O)N[C@H]1CC[C@@H](Nc2nc3c(c(N(C)C)n2)CCCC3)CC1 [compound 1712]	2 (Class 2: The value of percent of control at 10^−7 M was from 40% to 60% or the value of IC′50 was from 50 nM to 200 nM.)
CN(C)c1nc(N[C@H]2CC[C@@H](NC(=O)NCc3ccccc3F)CC2)nc2c1CCCC2 [compound 1713]	2 (Class 2: The value of percent of control at 10^−7 M was from 40% to 60% or the value of IC′50 was from 50 nM to 200 nM.)
Cc1cc([N+](=O)[O-])ccc1NC(=O)N[C@H]1CC[C@@H](Nc2nc3c(c(N(C)C)n2)CCCC3)CC1 [compound 1714]	3 (Class 3 The value of percent of control at 10^−7 M was more than 60% or the value of IC50 was more than 200 nM.)
Cc1ccc([N+](=O)[O-])cc1NC(=O)N[C@H]1CC[C@@H](Nc2nc3c(c(N(C)C)n2)CCCC3)CC1 [compound 1715]	3 (Class 3 The value of percent of control at 10^−7 M was more than 60% or the value of IC50 was more than 200 nM.)
Cc1ccccc1CNC(=O)N[C@H]1CC[C@@H](Nc2nc3c(c(N(C)C)n2)CCCC3)CC1 [compound 1716]	3 (Class 3 The value of percent of control at 10^−7 M was more than 60% or the value of IC50 was more than 200 nM.)
CN(C)c1nc(N[C@H]2CC[C@@H](NC(=O)Nc3ccccc3[N+](=O)[O-])CC2)nc2c1CCCC2 [compound 1717]	3 (Class 3 The value of percent of control at 10^−7 M was more than 60% or the value of IC50 was more than 200 nM.)
CN(C)c1nc(N[C@H]2CC[C@@H](NC(=O)Nc3ccc4c(c3)OCO4)CC2)nc2c1CCCC2 [compound 1718]	3 (Class 3 The value of percent of control at 10^−7 M was more than 60% or the value of IC50 was more than 200 nM.)
COc1cc(NC(=O)N[C@H]2CC[C@@H](Nc3nc4c(c(N(C)C)n3)CCCC4)CC2)cc(OC)c1OC [compound 1719]	1 (Class 1: The value of percent of control at 10^−7 M was less than 40% or the value of IC50 was less than 50 nM.)
COc1ccc(NC(=O)N[C@H]2CC[C@@H](Nc3nc4c(c(N(C)C)n3)CCCC4)CC2)cc1OC [compound 1720, N-(3,4-dimethoxyphenyl)-N′-(cis-4-{[4-(dimethylamino)-5,6,7,8-tetrahydroquinazolin-2-yl]amino}cyclohexyl)urea]	2 (Class 2: The value of percent of control at 10^−7 M was from 40% to 60% or the value of IC′50 was from 50 nM to 200 nM.)
COc1ccc(NC(=O)N[C@H]2CC[C@@H](Nc3nc4c(c(N(C)C)n3)CCCC4)CC2)cc1Cl [compound 1721]	3 (Class 3 The value of percent of control at 10^−7 M was more than 60% or the value of IC50 was more than 200 nM.)
CN(C)c1nc(N[C@H]2CC[C@@H](NC(=O)Nc3ccc(Br)cc3C(F)(F)F)CC2)nc2c1CCCC2 [compound 1722]	3 (Class 3 The value of percent of control at 10^−7 M was more than 60% or the value of IC50 was more than 200 nM.)
CN(C)c1nc(N[C@H]2CC[C@@H](NC(=O)NCc3ccc(Br)cc3)CC2)nc2c1CCCC2 [compound 1723]	3 (Class 3 The value of percent of control at 10^−7 M was more than 60% or the value of IC50 was more than 200 nM.)
Cc1cc(Cl)ccc1NC(=O)N[C@H]1CC[C@@H](Nc2nc3c(c(N(C)C)n2)CCCC3)CC1 [compound 1724, N-(4-chloro-2-methylphenyl)-N′-(cis-4-{[4-(dimethylamino)-5,6,7,8-tetrahydroquinazolin-2-yl]amino}cyclohexyl)urea]	2 (Class 2: The value of percent of control at 10^−7 M was from 40% to 60% or the value of IC′50 was from 50 nM to 200 nM.)
CN(C)c1nc(N[C@H]2CC[C@@H](NC(=O)NCc3ccc(F)cc3)CC2)nc2c1CCCC2 [compound 1725]	2 (Class 2: The value of percent of control at 10^−7 M was from 40% to 60% or the value of IC′50 was from 50 nM to 200 nM.)
COc1ccc(NC(=O)N[C@H]2CC[C@@H](Nc3nc4c(c(N(C)C)n3)CCCC4)CC2)c(C)c1 [compound 1726]	2 (Class 2: The value of percent of control at 10^−7 M was from 40% to 60% or the value of IC′50 was from 50 nM to 200 nM.)
COc1cc(OC)c(NC(=O)N[C@H]2CC[C@@H](Nc3nc4c(c(N(C)C)n3)CCCC4)CC2)cc1Cl [compound 1727]	1 (Class 1: The value of percent of control at 10^−7 M was less than 40% or the value of IC50 was less than 50 nM.)
Cc1cc(Br)ccc1NC(=O)N[C@H]1CC[C@@H](Nc2nc3c(c(N(C)C)n2)CCCC3)CC1 [compound 1729, N-(4-bromo-2-methylphenyl)-N′-(cis-4-{[4-(dimethylamino)-5,6,7,8-tetrahydroquinazolin-2-yl]amino}cyclohexyl)urea]	2 (Class 2: The value of percent of control at 10^−7 M was from 40% to 60% or the value of IC′50 was from 50 nM to 200 nM.)

Compound	class
CN(C)c1nc(N[C@H]2CC[C@@H](NC(=O)Nc3ccc4c(c3)OCCO4)CC2)nc2c1CCCC2 [compound 1731]	3 (Class 3 The value of percent of control at 10^−7 M was more than 60% or the value of IC50 was more than 200 nM.)
CC(C)c1cc(Br)c(NC(=O)N[C@H]2CC[C@@H](Nc3nc4c(c(N(C)C)n3)CCCC4)CC2)c(Br)c1 [compound 1732]	3 (Class 3 The value of percent of control at 10^−7 M was more than 60% or the value of IC50 was more than 200 nM.)
COc1ccc(NC(=O)N[C@H]2CC[C@@H](Nc3nc4c(c(N(C)C)n3)CCCC4)CC2)cc1OC1CCCC1 [compound 1733]	3 (Class 3 The value of percent of control at 10^−7 M was more than 60% or the value of IC50 was more than 200 nM.)
CN(C)c1nc(N[C@H]2CC[C@@H](NC(=O)Nc3ccc4c(c3)OCCCO4)CC2)nc2c1CCCC2 [compound 1734]	3 (Class 3 The value of percent of control at 10^−7 M was more than 60% or the value of IC50 was more than 200 nM.)
CCCCc1ccc(NC(=O)N[C@H]2CC[C@@H](Nc3nc4c(c(N(C)C)n3)CCCC4)CC2)c(C)c1 [compound 1735]	3 (Class 3 The value of percent of control at 10^−7 M was more than 60% or the value of IC50 was more than 200 nM.)
Cc1onc(-c2ccccc2)c1NC(=O)N[C@H]1CC[C@@H](Nc2nc3c(c(N(C)C)n2)CCCC3)CC1 [compound 1736]	1 (Class 1: The value of percent of control at 10^−7 M was less than 40% or the value of IC50 was less than 50 nM.)
CN(C)c1nc(N[C@H]2CC[C@@H](NC(=S)Nc3ccc(Br)cc3)CC2)nc2c1CCCC2 [compound 1737]	3 (Class 3 The value of percent of control at 10^−7 M was more than 60% or the value of IC50 was more than 200 nM.)
CN(C)c1nc(N[C@H]2CC[C@@H](NC(=S)Nc3ccc(C#N)cc3)CC2)nc2c1CCCC2 [compound 1738]	3 (Class 3 The value of percent of control at 10^−7 M was more than 60% or the value of IC50 was more than 200 nM.)
CN(C)c1nc(N[C@H]2CC[C@@H](NC(=S)Nc3ccc(Cl)cc3Cl)CC2)nc2c1CCCC2 [compound 1739]	3 (Class 3 The value of percent of control at 10^−7 M was more than 60% or the value of IC50 was more than 200 nM.)
COc1ccc(NC(=S)N[C@H]2CC[C@@H](Nc3nc4c(c(N(C)C)n3)CCCC4)CC2)c(OC)c1 [compound 1740, N-(2,4-dimethoxyphenyl)-N′-(cis-4-{[4-(dimethylamino)-5,6,7,8-tetrahydroquinazolin-2-yl]amino}cyclohexyl)thiourea]	1 (Class 1: The value of percent of control at 10^−7 M was less than 40% or the value of IC50 was less than 50 nM.)
Cc1cccc(C)c1NC(=S)N[C@H]1CC[C@@H](Nc2nc3c(c(N(C)C)n2)CCCC3)CC1 [compound 1741]	3 (Class 3 The value of percent of control at 10^−7 M was more than 60% or the value of IC50 was more than 200 nM.)
CCc1cccc(C(C)C)c1NC(=S)N[C@H]1CC[C@@H](Nc2nc3c(c(N(C)C)n2)CCCC3)CC1 [compound 1742]	3 (Class 3 The value of percent of control at 10^−7 M was more than 60% or the value of IC50 was more than 200 nM.)
COc1ccccc1NC(=S)N[C@H]1CC[C@@H](Nc2nc3c(c(N(C)C)n2)CCCC3)CC1 [compound 1743]	3 (Class 3 The value of percent of control at 10^−7 M was more than 60% or the value of IC50 was more than 200 nM.)
CN(C)c1nc(N[C@H]2CC[C@@H](NC(=S)Nc3cccc4ccccc34)CC2)nc2c1CCCC2 [compound 1744]	3 (Class 3 The value of percent of control at 10^−7 M was more than 60% or the value of IC50 was more than 200 nM.)
COc1cc(NC(=S)N[C@H]2CC[C@@H](Nc3nc4c(c(N(C)C)n3)CCCC4)CC2)cc(OC)c1OC [compound 1745]	1 (Class 1: The value of percent of control at 10^−7 M was less than 40% or the value of IC50 was less than 50 nM.)
COc1ccc(NC(=S)N[C@H]2CC[C@@H](Nc3nc4c(c(N(C)C)n3)CCCC4)CC2)cc1OC [compound 1746, N-(3,4-dimethoxyphenyl)-N′-(cis-4-{[4-(dimethylamino)-5,6,7,8-tetrahydroquinazolin-2-yl]amino}cyclohexyl)thiourea]	1 (Class 1: The value of percent of control at 10^−7 M was less than 40% or the value of IC50 was less than 50 nM.)
CN(C)c1nc(N[C@H]2CC[C@@H](NC(=S)Nc3ccc(N(C)C)c4ccccc34)CC2)nc2c1CCCC2 [compound 1747]	2 (Class 2: The value of percent of control at 10^−7 M was from 40% to 60% or the value of IC′50 was from 50 nM to 200 nM.)
CCc1ccccc1NC(=S)N[C@H]1CC[C@@H](Nc2nc3c(c(N(C)C)n2)CCCC3)CC1 [compound 1748]	3 (Class 3 The value of percent of control at 10^−7 M was more than 60% or the value of IC50 was more than 200 nM.)
COc1cc([N+](=O)[O-])ccc1NC(=S)N[C@H]1CC[C@@H](Nc2nc3c(c(N(C)C)n2)CCCC3)CC1 [compound 1749]	3 (Class 3 The value of percent of control at 10^−7 M was more than 60% or the value of IC50 was more than 200 nM.)
